Results: PMC7297817, “Pharmacological Characterization of a Betaine/GABA Transporter 1 (BGT1) Inhibitor Displaying an Unusual Biphasic Inhibition Profile and Anti-seizure Effects” (Neurochemical Research, 2020)
Like-named read-outs stand apart in the source and are kept apart here.

Legend:
[1] = target: T1, D2 (Homo sapiens, UniProt P14416); assay: NIMH PDSP radioligand binding, D2; details: radioligand [3H]N-methylspiperone, n=4
T1 construct: purchased NIMH Psychoactive Drug Screening Program (PDSP)

[2] = target: T2, DAT (Homo sapiens, UniProt Q01959); assay: NIMH PDSP radioligand binding, DAT; details: radioligand [3H]WIN35428, n=4
T2 construct: purchased NIMH Psychoactive Drug Screening Program (PDSP)

[3] = target: T3, mGAT2 (Mus musculus, UniProt P31649); assay: [3H]GABA uptake at mGAT2 stably expressed in HEK-293 cells; format: cell-based
T3 construct: expressed in transfected cells
Method: (§1) The HEK-293 and Flp-In CHO cell lines stably expressing mouse (m) and human (h) GATs, respectively, have been described previously and were cultured accordingly. The tsA201 cell line was used for transient expression while the MDCK II cell line express BGT1 endogenously. Both cell lines were cultured as described. tsA201 cells were transfected with DNA constructs (8 μg per 10 cm dish if not otherwise mentioned) using 40 μL PolyFect transfection reagent according to the manufacturer’s protocol (Qiagen, Venlo, Netherlands). The DNA constructs encoding hBGT1, hGAT1-3 [36], the mutated constructs hBGT1 Q299 and hGAT3 L314Q described previously, and hBGT Y453A were synthesized and sequence validated by Genscript (NJ, USA).
(§2) The [^3H]GABA competition uptake assay was performed as previously described. A minor change, however, was introduced for uptake in MDCK II cells, in which 100 nM [^3H]GABA was used for a 15 min incubation period at 37 °C instead of 30 nM [^3H]GABA and 3 min incubation. Studies related to the inhibition curves with GABA and BPDBA at hBGT1 were obtained both with and without the presence of 10 μM ATP during the [^3H]GABA uptake assay.
(§3) The [^3H]GABA uptake data was normalized to the percentage of total uptake in the individual experiments in the presence of the lowest compound concentration or no compound present. […]

[4] = target: T4, mGAT3 (Mus musculus, UniProt P31650); assay: [3H]GABA uptake at mGAT3 stably expressed in HEK-293 cells; format: cell-based; details: N=3
T4 construct: expressed in transfected cells
Method: as §1, §2, §3

[5] = target: T5, M1 (Homo sapiens, UniProt P11229); assay: NIMH PDSP radioligand binding, M1
T5 construct: purchased NIMH Psychoactive Drug Screening Program (PDSP)

[6] = target: T6, 5-HT2C (Homo sapiens, UniProt P28335); assay: NIMH PDSP radioligand binding, 5-HT2C; details: radioligand [3H]mesulergine
T6 construct: NIMH PDSP (screening service)

[7] = target: T7, mBGT1 (Mus musculus, UniProt P31651); assay: [3H]GABA uptake at mBGT1 stably expressed in HEK-293 cells; format: cell-based
T7 construct: expressed in transfected cells
T7 sequence (P31651 1-614): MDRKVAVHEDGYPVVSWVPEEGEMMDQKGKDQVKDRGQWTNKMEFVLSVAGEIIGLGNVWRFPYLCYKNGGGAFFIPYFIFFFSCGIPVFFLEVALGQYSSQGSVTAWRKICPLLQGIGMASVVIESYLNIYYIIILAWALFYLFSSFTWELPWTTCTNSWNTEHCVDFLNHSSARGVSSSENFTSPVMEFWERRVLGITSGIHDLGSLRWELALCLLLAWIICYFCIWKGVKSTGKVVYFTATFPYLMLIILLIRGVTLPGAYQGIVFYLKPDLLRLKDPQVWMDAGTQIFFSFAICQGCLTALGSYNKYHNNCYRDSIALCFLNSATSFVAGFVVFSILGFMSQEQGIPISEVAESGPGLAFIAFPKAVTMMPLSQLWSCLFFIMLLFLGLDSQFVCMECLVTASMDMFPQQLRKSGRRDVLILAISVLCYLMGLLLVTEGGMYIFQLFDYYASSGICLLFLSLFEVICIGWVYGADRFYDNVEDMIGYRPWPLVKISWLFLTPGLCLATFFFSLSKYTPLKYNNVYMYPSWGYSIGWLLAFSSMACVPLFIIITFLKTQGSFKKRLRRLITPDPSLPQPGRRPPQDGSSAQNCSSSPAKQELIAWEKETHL
Method: as §1, §2
The [^3H]GABA uptake data was normalized to the percentage of total uptake in the individual experiments in the presence of the lowest compound concentration or no compound present. Data presented is the pooled data of at least three independent experiments with three technical replicates. Concentration–response curves (CRCs) were fitted with GraphPad Prism (version 8.2.1, Yosemite, GraphPad Software, San Diego, CA, USA) by non-linear regression to the sigmoidal concentration response model: Y=Bottom+(Top-Bottom)/1+10^LogIC50-X∗nH where Top is the Top plateau, Bottom is the Bottom plateau, X is the logarithm of the concentration of the compound, LogIC50 is the concentration giving a response halfway between Top and Bottom,and nH is the Hill slope.
The best fit for CRCs obtained with the [^3H]GABA uptake assay was identified by the extra-sum-of-squares F test (for convenience referred to as F test).

[8] = target: T8, hBGT1 Q299L (Homo sapiens, UniProt P48065, Q299L); assay: [3H]GABA uptake at hBGT1 Q299L mutant in tsA201 cells; format: cell-based; details: data not shown
T8 construct: expressed in transfected cells; host or cells: tsA201 (transient)
Method: as §1, §2, §3

[9] = target: T9, 5-HT1E (Homo sapiens, UniProt P28566); assay: NIMH PDSP radioligand binding, 5-HT1E; details: radioligand [3H]5-HT, n=4
T9 construct: purchased NIMH Psychoactive Drug Screening Program (PDSP)

[10] = target: T10, Alpha1A (Homo sapiens, UniProt P35348); assay: NIMH PDSP radioligand binding, Alpha1A; details: radioligand [3H]prazosine, n=4
T10 construct: purchased NIMH Psychoactive Drug Screening Program (PDSP)

[11] = target: T11, 5-HT1D (Homo sapiens, UniProt P28221); assay: NIMH PDSP radioligand binding, 5-HT1D; details: radioligand [3H]GR125743, n=4
T11 construct: purchased NIMH Psychoactive Drug Screening Program (PDSP)
T11 sequence (P28221 whole entry): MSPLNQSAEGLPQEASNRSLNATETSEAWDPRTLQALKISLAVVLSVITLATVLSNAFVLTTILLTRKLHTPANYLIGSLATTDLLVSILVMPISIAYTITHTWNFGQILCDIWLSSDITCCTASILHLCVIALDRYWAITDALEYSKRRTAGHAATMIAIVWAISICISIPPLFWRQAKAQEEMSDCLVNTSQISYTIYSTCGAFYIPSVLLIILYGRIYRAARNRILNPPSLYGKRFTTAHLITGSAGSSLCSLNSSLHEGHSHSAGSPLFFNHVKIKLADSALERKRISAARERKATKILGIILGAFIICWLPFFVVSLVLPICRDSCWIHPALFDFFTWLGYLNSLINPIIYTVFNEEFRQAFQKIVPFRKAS

T3 sequence (P31649 whole entry): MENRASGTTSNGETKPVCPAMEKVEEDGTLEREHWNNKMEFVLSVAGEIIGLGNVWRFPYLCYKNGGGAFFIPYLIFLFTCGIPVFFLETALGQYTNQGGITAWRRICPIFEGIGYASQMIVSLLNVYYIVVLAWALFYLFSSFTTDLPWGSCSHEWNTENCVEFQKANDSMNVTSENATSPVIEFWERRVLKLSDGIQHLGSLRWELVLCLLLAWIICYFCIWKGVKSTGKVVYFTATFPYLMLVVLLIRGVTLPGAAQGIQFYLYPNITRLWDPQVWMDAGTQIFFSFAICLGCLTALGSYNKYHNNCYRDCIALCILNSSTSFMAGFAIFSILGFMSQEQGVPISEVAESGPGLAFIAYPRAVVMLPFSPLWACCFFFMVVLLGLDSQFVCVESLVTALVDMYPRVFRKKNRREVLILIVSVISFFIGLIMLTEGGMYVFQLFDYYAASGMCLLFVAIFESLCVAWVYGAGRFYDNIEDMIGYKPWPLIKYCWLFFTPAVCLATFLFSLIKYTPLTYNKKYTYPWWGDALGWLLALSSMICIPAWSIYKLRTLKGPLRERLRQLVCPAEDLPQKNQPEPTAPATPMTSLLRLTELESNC
T6 sequence (P28335 33-458, species assumed): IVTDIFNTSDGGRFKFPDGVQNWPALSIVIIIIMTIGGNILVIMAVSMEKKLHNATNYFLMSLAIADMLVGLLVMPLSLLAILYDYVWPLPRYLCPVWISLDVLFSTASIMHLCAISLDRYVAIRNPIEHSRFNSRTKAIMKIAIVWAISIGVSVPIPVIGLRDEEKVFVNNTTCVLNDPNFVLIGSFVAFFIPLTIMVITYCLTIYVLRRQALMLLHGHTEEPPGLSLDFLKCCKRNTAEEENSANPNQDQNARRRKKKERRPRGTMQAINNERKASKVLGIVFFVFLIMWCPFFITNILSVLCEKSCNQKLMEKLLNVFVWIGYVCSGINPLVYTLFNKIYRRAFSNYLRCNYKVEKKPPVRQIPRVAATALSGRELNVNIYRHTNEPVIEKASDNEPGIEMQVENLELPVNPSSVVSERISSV
T4 sequence (P31650 whole entry): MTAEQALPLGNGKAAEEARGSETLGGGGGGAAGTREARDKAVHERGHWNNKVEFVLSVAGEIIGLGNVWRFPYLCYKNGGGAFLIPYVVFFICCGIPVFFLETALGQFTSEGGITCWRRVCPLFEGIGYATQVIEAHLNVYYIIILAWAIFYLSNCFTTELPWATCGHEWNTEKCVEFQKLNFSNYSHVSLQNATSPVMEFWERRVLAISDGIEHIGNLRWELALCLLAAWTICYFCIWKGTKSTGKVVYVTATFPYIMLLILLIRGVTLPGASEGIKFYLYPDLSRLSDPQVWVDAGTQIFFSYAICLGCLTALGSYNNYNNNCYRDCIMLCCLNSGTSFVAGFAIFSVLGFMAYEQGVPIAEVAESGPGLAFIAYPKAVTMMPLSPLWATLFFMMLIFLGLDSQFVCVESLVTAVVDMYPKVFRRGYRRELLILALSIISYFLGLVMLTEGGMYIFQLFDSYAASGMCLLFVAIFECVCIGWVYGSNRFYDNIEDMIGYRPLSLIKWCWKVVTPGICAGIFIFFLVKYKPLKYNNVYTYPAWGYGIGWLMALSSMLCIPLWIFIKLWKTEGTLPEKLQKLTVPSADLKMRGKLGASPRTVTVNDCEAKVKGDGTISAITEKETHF
T1 sequence (P14416 whole entry): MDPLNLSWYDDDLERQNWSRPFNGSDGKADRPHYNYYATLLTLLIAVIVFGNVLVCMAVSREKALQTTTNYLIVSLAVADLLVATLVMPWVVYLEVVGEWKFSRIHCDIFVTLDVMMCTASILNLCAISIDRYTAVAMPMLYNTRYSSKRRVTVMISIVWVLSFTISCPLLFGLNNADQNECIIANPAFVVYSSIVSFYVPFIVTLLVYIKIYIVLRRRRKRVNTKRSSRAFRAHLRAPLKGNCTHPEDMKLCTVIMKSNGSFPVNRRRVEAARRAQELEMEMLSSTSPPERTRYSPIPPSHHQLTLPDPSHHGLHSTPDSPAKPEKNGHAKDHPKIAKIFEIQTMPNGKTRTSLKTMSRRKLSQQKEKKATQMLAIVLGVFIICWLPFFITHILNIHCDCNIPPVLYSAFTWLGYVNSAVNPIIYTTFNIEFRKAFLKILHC
T8 sequence (P48065 whole entry Q299L): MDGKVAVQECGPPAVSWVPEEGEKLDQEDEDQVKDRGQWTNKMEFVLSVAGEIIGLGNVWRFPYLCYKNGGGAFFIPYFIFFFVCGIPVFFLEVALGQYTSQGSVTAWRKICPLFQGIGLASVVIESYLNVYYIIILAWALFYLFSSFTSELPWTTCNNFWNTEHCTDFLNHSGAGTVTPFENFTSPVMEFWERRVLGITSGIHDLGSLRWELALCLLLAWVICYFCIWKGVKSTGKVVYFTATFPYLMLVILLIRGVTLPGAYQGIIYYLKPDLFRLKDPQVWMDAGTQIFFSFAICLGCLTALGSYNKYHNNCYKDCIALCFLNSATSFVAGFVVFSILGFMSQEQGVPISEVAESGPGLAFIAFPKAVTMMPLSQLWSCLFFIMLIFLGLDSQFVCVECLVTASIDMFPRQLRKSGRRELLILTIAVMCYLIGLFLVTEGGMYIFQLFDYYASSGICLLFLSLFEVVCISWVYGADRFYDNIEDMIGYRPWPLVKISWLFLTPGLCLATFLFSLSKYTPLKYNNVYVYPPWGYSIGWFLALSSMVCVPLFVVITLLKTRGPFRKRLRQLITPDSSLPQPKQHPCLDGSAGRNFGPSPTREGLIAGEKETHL
T10 sequence (P35348 whole entry): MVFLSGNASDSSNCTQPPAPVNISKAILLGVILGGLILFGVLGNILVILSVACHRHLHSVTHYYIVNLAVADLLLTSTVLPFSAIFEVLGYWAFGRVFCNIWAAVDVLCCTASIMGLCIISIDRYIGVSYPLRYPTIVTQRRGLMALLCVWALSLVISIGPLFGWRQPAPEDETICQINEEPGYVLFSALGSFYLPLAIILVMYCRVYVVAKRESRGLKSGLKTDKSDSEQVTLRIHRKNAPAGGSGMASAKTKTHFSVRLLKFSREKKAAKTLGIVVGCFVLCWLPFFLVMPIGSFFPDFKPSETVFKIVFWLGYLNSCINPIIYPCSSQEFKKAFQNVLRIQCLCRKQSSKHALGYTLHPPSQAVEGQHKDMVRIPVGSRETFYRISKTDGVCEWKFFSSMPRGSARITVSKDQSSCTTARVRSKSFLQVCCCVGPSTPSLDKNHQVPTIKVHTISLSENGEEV
T9 sequence (P28566 whole entry): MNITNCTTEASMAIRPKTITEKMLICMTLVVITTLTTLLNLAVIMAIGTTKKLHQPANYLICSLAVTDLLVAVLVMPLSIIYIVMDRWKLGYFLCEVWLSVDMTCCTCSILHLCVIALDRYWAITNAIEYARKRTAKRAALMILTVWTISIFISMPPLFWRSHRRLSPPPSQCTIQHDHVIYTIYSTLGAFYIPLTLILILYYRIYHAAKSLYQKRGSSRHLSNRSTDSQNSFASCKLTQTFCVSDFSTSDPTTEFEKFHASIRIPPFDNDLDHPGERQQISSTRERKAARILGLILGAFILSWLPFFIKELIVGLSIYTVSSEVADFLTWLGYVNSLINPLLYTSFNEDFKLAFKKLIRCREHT
T2 sequence (Q01959 whole entry): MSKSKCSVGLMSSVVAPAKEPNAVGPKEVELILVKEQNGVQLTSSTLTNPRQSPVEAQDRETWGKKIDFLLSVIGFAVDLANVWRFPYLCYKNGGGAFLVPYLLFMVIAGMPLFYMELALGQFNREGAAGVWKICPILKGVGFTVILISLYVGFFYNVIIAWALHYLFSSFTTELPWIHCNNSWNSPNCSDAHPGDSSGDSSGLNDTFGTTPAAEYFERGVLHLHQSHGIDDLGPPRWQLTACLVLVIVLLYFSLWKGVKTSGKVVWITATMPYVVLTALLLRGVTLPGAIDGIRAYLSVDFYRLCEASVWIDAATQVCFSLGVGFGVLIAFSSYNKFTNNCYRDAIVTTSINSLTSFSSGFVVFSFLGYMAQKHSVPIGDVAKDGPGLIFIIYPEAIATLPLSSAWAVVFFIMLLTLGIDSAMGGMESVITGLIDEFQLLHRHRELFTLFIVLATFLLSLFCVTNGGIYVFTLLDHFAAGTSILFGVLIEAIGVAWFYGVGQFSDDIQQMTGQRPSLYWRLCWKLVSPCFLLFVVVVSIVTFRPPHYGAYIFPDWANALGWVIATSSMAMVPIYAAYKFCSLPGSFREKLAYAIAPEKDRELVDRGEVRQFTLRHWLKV
T5 sequence (P11229 whole entry): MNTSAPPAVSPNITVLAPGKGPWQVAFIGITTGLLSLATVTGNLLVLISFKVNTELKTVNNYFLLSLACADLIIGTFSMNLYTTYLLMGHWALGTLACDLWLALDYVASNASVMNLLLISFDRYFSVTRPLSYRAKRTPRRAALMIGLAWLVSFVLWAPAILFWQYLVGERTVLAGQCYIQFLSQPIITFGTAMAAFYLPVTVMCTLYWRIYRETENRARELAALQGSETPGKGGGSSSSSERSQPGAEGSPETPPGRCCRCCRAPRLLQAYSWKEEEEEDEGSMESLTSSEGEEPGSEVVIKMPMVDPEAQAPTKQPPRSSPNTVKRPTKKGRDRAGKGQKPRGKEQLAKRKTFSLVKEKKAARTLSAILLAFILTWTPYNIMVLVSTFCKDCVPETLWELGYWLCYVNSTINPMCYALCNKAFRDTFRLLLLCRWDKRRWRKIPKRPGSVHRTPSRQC

With `Cc1ccsc1C(=CCCN(C)[C@H]1CCCC[C@H]1C(=O)O)c1sccc1C` [SBV2-114, (1R,2S)-2-((4,4-bis(3-methylthiophen-2-yl)but-3-en-yl)(methyl)amino)cyclohexanecarboxylic acid] as the compound, how does the inhibition at 10 µM [1] read?
The inhibition at 10 µM was 12.3%.

What about the inhibition at 10 µM [2] of the same compound?
Its inhibition at 10 µM is 36.9%.

And the IC50 [3]?
The IC50 was over 1000 µM.

And the Fit ([3]; preferred model, N=3)?
Its Fit is “Ambiguous”.

And the IC50 ([4]; ambiguous fit)?
The IC50 was over 1000 µM.

What about the Fit ([4]; preferred model) of the same compound?
Its Fit is “Ambiguous”.

And the inhibition at 10 µM [5]?
The inhibition at 10 µM was 18.3%.

And the inhibition at 10 µM ([6]; 10 μM, n=4)?
Its inhibition at 10 µM is 77.5%.

And the Ki ([6]; full curve)?
The Ki was 0.67 µM.

What about the IC50 [7] of the same compound?
Its IC50 is 3.8 µM.

What about the “% inhibition (Frac value) at the low IC50” value ([7]; biphasic fit) of the same compound?
The value was 45%.

And the Fit ([7]; preferred model, extra-sum-of-squares F test, N=5)?
The Fit was “Biphasic”.

What about the IC50 ([7]; read-out: IC50, low affinity component (high IC50), biphasic fit, 30 nM [3H]GABA, 3 min, HEK-293) of the same compound?
The IC50 was 408 µM.

What about the “inhibition profile and activity at hBGT1 Q299L” value [8] of the same compound?
The value was “clear biphasic inhibition profile and no significant altered activity”.

What about the inhibition at 10 µM [9] of the same compound?
Its inhibition at 10 µM is -12.9%.

And the inhibition at 10 µM [10]?
The inhibition at 10 µM was 0.1%.

And the inhibition at 10 µM [11]?
The inhibition at 10 µM was 19.6%.
